Reference: patent publication US9757358B2 (priority 2010, dated 2017)

What was measured:
[1] = tested on: morphine dependence; conditions: cited from earlier work
[2] = biological target: sigma 2 (σ-2) site (Homo sapiens, UniProt Q5BJF2); conditions: cited from earlier work
[3] = tested on: post-operative pain in rats (mechanical allodynia); conditions: rat, in vivo
[4] = tested on: post-operative pain in rats (thermal hyperalgesia); experiment: Thermal hyperalgesia (Ugo Basile plantar test) after plantar incision, post-operative pain in rats; type: in vivo, rat; conditions: given 3.5 h after surgery
[5] = tested on: opioid analgesia; conditions: Chichenkov et al. 1985; cited from earlier work

sigma 2 (σ-2) site, sequence (Q5BJF2 whole entry): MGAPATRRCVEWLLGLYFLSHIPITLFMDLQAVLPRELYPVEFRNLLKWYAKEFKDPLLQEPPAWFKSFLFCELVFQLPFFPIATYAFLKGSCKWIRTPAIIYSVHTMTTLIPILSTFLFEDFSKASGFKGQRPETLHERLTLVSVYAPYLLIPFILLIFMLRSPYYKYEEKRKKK

dehydroepiandrosterone sulfate [DHEA]
effect on development of morphine dependence ([1]; Noda et al. 2001): some capacity to attenuate the development of morphine dependence

SKF 10047
affinity for the sigma 2 site [2]: micromolar affinity

Cc1cc(OCCN2CCOCC2)nn1-c1ccc2ccccc2c1 [compound 63, 4-{2-[5-Methyl-1-(naphthalen-2-yl)-1H-pyrazol-3-yloxy]ethyl}morpholine]
effect on buprenorphine analgesia [3]: enhances buprenorphine analgesia
effect on morphine analgesia [3]: enhances morphine analgesia
effect on oxycodone analgesia [3]: enhances oxycodone analgesia
effect on tapentadol analgesia [3]: enhances tapentadol analgesia
effect on tramadol analgesia [3]: enhances tramadol analgesia
effect on tramadol analgesia ([4]; compound 63 5, 10, 20, 40 mg/kg + tramadol 1.25 mg/kg): enhances tramadol analgesia
effect on morphine analgesia ([4]; compound 63 10, 20, 40, 80 mg/kg + morphine 0.625 mg/kg): enhances morphine analgesia

COc1ccc(CCN2CCN(CCCc3ccccc3)CC2)cc1OC [SA4503]
effect on addiction to morphine ([1]; morphine-induced place preference, Nomura et al. 1999): modulatory effect on addiction to morphine

O=C(CCCN1CCC(O)(c2ccc(Cl)cc2)CC1)c1ccc(F)cc1 [Haloperidol, haloperidol]
effect on activity of opioids and opiates (morphine, DADL, bremazocine) [5]: potentiates the activity of different opioids and opiates
